Data reported in patent US20220054658A1, “CONJUGATES” (Transfection Holdings Limited, priority 2018, published 2022).
“Also recorded” adds a separate entry of the source.

Key:
C. elegans = assay: Conjugate uptake in C. elegans (dye and praziquantel conjugates, fluorescence microscopy); assay type: in vivo, Caenorhabditis elegans; settings: 50 μM; for viability of the nematodes: readings up to 72 h
Protocol: Nematode Growth Media (NGM) plates containing C. elegans were washed with 1.0-1.5 mL of standard M9 buffer and the washes were collected in an Eppendorf tube. The liquid containing the C. elegans was then spun for 1 min at room temperature at 10,000 rpm. The supernatant was removed, and fresh M9 buffer was added (500 μL) to generate a new stock solution of M9 buffer containing the C. elegans.
A C. elegans suspension (100 μL) was added a defined amount of M9 buffer (determined by the final desired concentration of compound to be tested: 399 μL in the case of the BODIPY tagged derivatives) contained within a separate Eppendorf tube. To this was then added a 25 mM solution of the compound in DMSO (1 μL). The resulting suspension was mixed using a vortex instrument.
The resulting mixture was incubated at room temperature for 2 to 4 h. in the dark (using aluminium foil to screen the tube, which was also stored in a cabinet).
Other samples were incubated overnight. Here, OP50 bacteria (3 μL) were added to the worms for feeding purposes, and the worms were kept in the dark at 20° C.
After the incubation, the tube contents were mixed gently by hand (typically by simple rotation of the tube), so as to achieve a homogenous suspension. A sample of the suspension (250 μL) was taken and mixed with M9 buffer (500 μL). The resulting suspension was placed in a centrifuge and spun at room temperature at 10,000 rpm for 1 min. The supernatant was removed, and the washing process was repeated twice more, each time using further quantities of fresh M9 buffer (500 μL each time). After the final washing sufficient supernatant was removed so as to leave a final sample volume of approximate 30 μL.
A 1.5% agarose solution in water was pre-warmed for 60 to 90 s. in a standard household style microwave (set to Power 4). Two drops of this solution was removed and placed on a glass slide. The glass slide was covered with a second glass slide. After 1 min., the slides were slid carefully apart, with the agarose remaining on one of the slides. Onto this slide was placed an aliquot of the final C. elegans solution (15 to 20 μL). To this was added a 20 mM sodium azide solution (5 μL) to inhibit nematode mobility. Vaseline was then placed around the agarose area before replacing the second slide. The slides were not pressed together.
The nematodes were then analysed using a Zeiss Axiskop 2 Plus microscope with a Hamamatsu Orca-ER (CA 742-95) camera. The images were resolved using OpenLab on a Mac operating system.
Compounds 1-11 were evaluated after 3 h and overnight incubation at a 50 μM concentration using the general uptake protocol described for C. elegans.
In order to compare the ability of a conjugate to improve the uptake of the drug praziquantel, two praziquantel derivatives were generated. Praziquantel was tagged with a BODIPY fluorescent tag (compound 12) and incorporated into a conjugate of the invention (compound 13). Compounds 12 and 13 were evaluated at a concentration of 50 μM using the C. elegans uptake protocol described above for compounds 1-11. Microscopic readings were taken after 3, 24 and 72 h.

L. passim strain PRA-403 = assay: Lotmaria passim parasite uptake test; assay type: cell-based; settings: room temperature, 45 min; for uptake in L. passim (fluorescence intensity, microplate reader): 1 μM and 100 μM
Protocol: 100 mM stock solutions of BODIPY derivatives were prepared with dimethylsulfoxide (DMSO). L passim strain PRA-403 (ATCC) was cultured in modified medium for C. bombi (Tognazzo et al.). The parasite culture was centrifuged, supernatant was removed and 500 μL of L passim medium with compound (final concentration 500, 100, 10 or 1 μM for BODIPY derivatives) or DMSO (0.1%) control was added. Incubated for 45 min at room temperature.
Uptake tests were performed at 1 μM and 100 μM final concentration of CJ-BODIPY derivatives. After incubation at room temperature for 45 min, fluorescence intensities were evaluated using a microplate reader.

[1] = test system: gastrointestinal system (crop, midgut and rectum) of adult honey bees; assay: Honey bee gut uptake test; set-up: species or system Apis mellifera; settings: 100 μM, 33° C., 45 min
Protocol: Honey bee (A. mellifera) hives were obtained and allowed to feed ab libitum spring to autumn. During the winter period, pollen mixed with 50% (v/v) sucrose was added to the honey bee hives in order to provide sufficient food. Honey bees were dissected and gastrointestinal system was removed including the crop, midgut and rectum, and added immediately to 500 μL of the delivery vehicle to be tested sample diluted with PBS at 100 μM final concentration or DMSO (0.1%) control. The mixture was incubated for 45 min at 33° C.
The gastrointestinal system (crop, midgut and rectum) of adult honey bees was extracted, and incubated with derivatives 1, 2, 8 and 11 at 100 μM and 33° C. for 45 min.

SMILES | uptake: location of fluorescence in C. elegans (C. elegans; 3 h incubation) | uptake: location of fluorescence in C. elegans (C. elegans; 20 h / overnight incubation) | uptake in L. passim (fluorescence intensity, microplate reader) (L. passim strain PRA-403) | uptake compared to other compounds (C. elegans; 3 h incubation) | uptake in L. passim (fluorescence microscopy) (L. passim strain PRA-403; 10 μM) | fluorescence in honey bee gut (crop, midgut, rectum) [1] | uptake: location of fluorescence in C. elegans (C. elegans; 24 h incubation) | uptake: location of fluorescence in C. elegans (C. elegans; 72 h incubation) | viability of the nematodes (C. elegans) | increase in uptake of compound 13 compared to compound 12 (C. elegans; 20 h incubation)
CC1=CC(C)=[N+]2C1=Cc1ccc(CCCn3cc(CCNC(=O)/C=C\NC(=O)[C@H]4OC(C)(C)OCC4(C)C)nn3)n1[B-]2(F)F [Compound 4, (Z)—N-((((3-[4,4-Difluoro-5,7-dimethyl-4-bora-3a,4a-diaza-s-indacene-3-yl]propyl)-1H-1,2,3-triazol-4-yl)ethylamino)-3-oxoprop-1-enyl)-2,2,5,5-tetramethyl-1,3-dioxane-4-carboxamide] | traces of compound 4 were present in the gut cells of larval stages | fluorescence was detected in the pharynx and the gut cells of the larval stages as well as in the early stage of egg development | one of the lowest amounts of uptake |  |  |  |  |  |  | 
CC1=CC(C)=[N+]2C1=Cc1ccc(CCCn3cc(CCNC(=O)/C=C\NC(=O)[C@H](O)C(C)(C)CO)nn3)n1[B-]2(F)F [Compound 8, (Z)—N-((((3-[4,4-Difluoro-5,7-dimethyl-4-bora-3a,4a-diaza-s-indacene-3-yl]propyl)-1H-1,2,3-triazol-4-yl)ethylamino)-3-oxoprop-1-enyl)-2,4-dihydroxy-3,3-dimethylbutanamide] | visible in the gut cells and gut lumen and to a lesser extent into the pharynx of larvae; also recorded: In adults, fluorescence was observed in the pharynx, the gut lumen, the gut cells, and eggs | fluorescence was present in the pharynx, gut lumen and gut cells of the larvae; also recorded: In adults, fluorescence was detected in the pharynx, gut lumen and gut cells, but not in the embryos | relatively low uptake | second largest uptake observed compared to compounds 1 to 7 | displayed fluorescence surrounding the cell membrane but not in the cytoplasm | slight fluorescence in midgut and rectum, but none in the crop |  |  |  | 
CC1=CC(C)=[N+]2C1=Cc1ccc(CCC(=O)N3CC(=O)N4CCc5ccccc5C4C3)n1[B-]2(F)F (stereo not drawn) [Compound 12, 5,5-Difluoro-1,3-dimethyl-7-(3-oxo-3-(4-oxo-3,4,6,7-tetrahydro-1-pyrazino[2,1-a]isoquinolin 2(11 bH)-yl)propyl)-5H-dipyrrolo[1,2-c:2′,1′-f][1,3,2]diazaborinin-4-ium-5-uide, reference compound] | weakly up taken up into the pharynx and gut cells of the C. elegans larvae, as well as by adult nematodes mainly in the gut cells with lesser amount in the pharynx |  |  |  |  |  | the larva showed no increased uptake, with very minor amounts of compound 12 located in the pharynx and the gut cells | only the gut cells of the larvae showed the presence of small amounts of fluorescence; also recorded: In the case of the adult stages, fluorescence was visible in the gut lumen, gut cells and pharynx | remained viable with no apparent detrimental effect | 
CC1=CC(C)=[N+]2C1=Cc1ccc(CCCn3cc(CCNC(=O)/C=C\NC(=O)[C@H](O)C(C)(C)CO)nn3)n1[B-]2(F)F [Compound 6, (Z)—N-((((3-[4,4-Difluoro-5,7-dimethyl-4-bora-3a,4a-diaza-s-indacene-3-yl]propyl)-1H-1,2,3-triazol-4-yl)ethylamino)-3-oxoprop-1-enyl)-2,4-dihydroxy-3,3-dimethylbutanamide] | visible in the gut cells and gut lumen of larval stages and in a lesser extent in the pharynx; also recorded: In adults, fluorescence was located in the pharynx, gut lumen and gut cells; also recorded: Fluorescence was not observed in the embryos | fluorescence was present in the gut lumen and gut cells, and to a smaller degree in the pharynx of the larvae; also recorded: Fluorescence was also present in the pharynx, gut cells and gut lumen of the adults as well as in the early stages of egg development; also recorded: Fluorescence was not observed in the embryos |  | much lower degree than the enantiomeric analogue compound 8 |  |  |  |  |  | 
CC1(C)OCC(C)(C)[C@H](C(=O)N/C=C/C(=O)NCCc2cn(CCCC3=[N+]4C(=Cc5ccc(CCC(=O)N6CC(=O)N7CCc8ccccc8C7C6)n5[B-]4(F)F)C=C3)nn2)O1 (stereo partly drawn) [Compound 13, 5,5-Difluoro-7-(3-oxo-3-(4-oxo-3,4,6,7-tetrahydro-1H-pyrazino[2,1-a]isoquinolin-2(11bH)-yl)propyl)-3-(3-(4-(2-((E)-3-((R)-2,2,5,5-tetramethyl-1,3-dioxane-4-carboxamido)acrylamido)ethyl)-1H-1,2,3-triazol-1-yl)propyl)-5H-dipyrrolo[1,—2-c:2′,1′-f][1,3,2]diazaborinin-4-ium-5-uide] | strongly located in the pharynx, gut cells and gut lumen of the larval stages; also recorded: In the adult nematodes, compound 13 was strongly located in the pharynx, gut cells and gut lumen, whilst not visible in the embryos |  |  |  |  |  | strongly observed in the pharynx, gut cells and gut lumen of the larva | still strongly visible in the pharynx, gut lumen and get cells of the larvae; also recorded: In the case of the adult nematodes, compound 13 was strongly visible in the pharynx and in the gut lumen, as well as in the embryos and eggs | remained viable with no apparent detrimental effect | threefold increase
